Measurements published in ChEMBL document CHEMBL1140503, “Discovery of 1,1-dioxo-1,2,6-thiadiazine-5-carboxamide derivatives as cannabinoid-like molecules with agonist and antagonist activity” (Bioorg Med Chem, 2007).
Activity calls are given as the source filed them. The calls are words filed in the database; no cut-off is given here.

What was measured:
Mus musculus [1] = test: Induction of catalepsy in ICR mouse at 1.5 mg/kg, ip by ring test; type: functional, organism-based; parameters: dose 1.5 mg/kg
Mus musculus [2] = test: Inhibition of spontaneous motility in ICR mouse at 1.5 mg/kg, ip; type: functional, organism-based; parameters: dose 1.5 mg/kg
Mus musculus [3] = test: Induction of hypothermic effect in ICR mouse at 1.5 mg/kg, ip; type: functional, organism-based; parameters: dose 1.5 mg/kg
Mus musculus [4] = test: Antinociceptive activity in ICR mouse at 1.5 mg/kg, ip by hot plate test; type: functional, organism-based; parameters: dose 1.5 mg/kg
Mus musculus [5] = test: Prevention of spontaneous activity reduction in ICR mouse at 1 mg/kg, ip; type: functional, organism-based; parameters: dose 1 mg/kg
Cannabinoid receptor 1 [6] = biological target: T1, Cannabinoid receptor 1 (Mus musculus, UniProt P47746); test: (§1) Agonist activity at CB1 receptor in ICR mouse vas deferens assessed as inhibition of electrically-stimulated contraction; type: functional, tissue-based
Cannabinoid receptor 1 [7] = biological target: T1, Cannabinoid receptor 1; test: Antagonist activity at CB1 receptor in ICR mouse vas deferens assessed as reversal of WIN-55212-2-induced effect on electrically-stimulated contraction; type: functional, tissue-based; conditions: read-out: pA2 (converted)
[8] = biological target: Cannabinoid receptor 1 (Mus musculus) (UniProt P47746); test: as §1; type: functional, tissue-based
Mus musculus [9] = test: Increase in locomotory activity in ICR mouse at 20 mg/kg, ip; type: functional, organism-based; parameters: dose 20 mg/kg
Mus musculus [10] = test: Effect on cannabinoid behavioral sign in ICR mouse at 0.2 mg/kg, icv; type: functional, organism-based; parameters: dose 0.2 mg/kg
[11] = Antagonism of WIN-55212-2 mediated antinociceptive activity in ICR mouse at 1 mg/kg ip dose; type: functional, organism-based; parameters: dose 1 mg/kg; conditions: filed as antagonist

T1 sequence (P47746 whole entry): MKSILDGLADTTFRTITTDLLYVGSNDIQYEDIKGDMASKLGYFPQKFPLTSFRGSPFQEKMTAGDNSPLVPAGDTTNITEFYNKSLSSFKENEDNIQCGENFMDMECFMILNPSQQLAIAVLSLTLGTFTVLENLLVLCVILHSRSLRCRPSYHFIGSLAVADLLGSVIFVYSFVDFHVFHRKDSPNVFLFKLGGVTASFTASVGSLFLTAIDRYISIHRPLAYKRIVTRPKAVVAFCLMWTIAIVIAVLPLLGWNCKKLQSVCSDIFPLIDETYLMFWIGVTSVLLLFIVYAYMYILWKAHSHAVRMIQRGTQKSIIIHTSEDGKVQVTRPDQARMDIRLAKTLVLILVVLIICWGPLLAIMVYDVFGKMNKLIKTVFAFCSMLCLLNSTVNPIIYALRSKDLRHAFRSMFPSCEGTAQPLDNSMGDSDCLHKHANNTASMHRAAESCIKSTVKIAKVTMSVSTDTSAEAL
Chain of Cannabinoid receptor 1 (Mus musculus) (P47746 whole entry): as above

Row | SMILES | EC50 (Cannabinoid receptor 1 [6]) [µM] | Agonism [8] | further results
1 | Cc1c(C(=O)c2cccc3ccccc23)c2cccc3c2n1[C@H](CN1CCOCC1)CO3 |  |  | Activity (Mus musculus [1]): Active; Activity (Mus musculus [2]): Active; Activity (Mus musculus [3]): Active; Activity (Mus musculus [4]): Active; Activity (Mus musculus [5]): Active
2 | CCCCCCN1C(C)=CC(C(=O)NN2CCCCC2)=NS1(=O)=O | 36.9 |  | 
3 | CCCCCCN1C(c2ccc(Cl)cc2)=CC(C(=O)NN2CCCCC2)=NS1(=O)=O | 8.44 |  | Kb (Cannabinoid receptor 1 [7]): 0.209 µM
4 | O=C(NN1CCCCC1)C1=NS(=O)(=O)N(Cc2ccc(Cl)cc2Cl)C(c2ccc(Br)cc2)=C1 |  | inactive | 
5 | Cc1cc(C2=CC(C(=O)NN3CCCCC3)=NS(=O)(=O)N2Cc2ccccc2)ccc1Cl |  | inactive | 
6 | CC12CCC(C1)C(C)(C)C2NC(=O)C1=NS(=O)(=O)N(Cc2ccc(Cl)cc2Cl)C(c2ccc(Cl)cc2)=C1 (stereo not given) |  | inactive | 
7 | CC1=CC(C(=O)NN2CCCCC2)=NS(=O)(=O)N1c1ccc(Cl)cc1 |  | inactive | 
8 | Cc1cc(C2=CC(C(=O)NC3C4(C)CCC(C4)C3(C)C)=NS(=O)(=O)N2Cc2ccccc2)ccc1Cl (stereo not given) |  | inactive | 
9 | O=C(Nc1ccccc1)C1=NS(=O)(=O)N(Cc2ccccc2)C(c2ccc(Cl)cc2)=C1 | 5.73 |  | 
10 | CC12CCC(C1)C(C)(C)C2NC(=O)C1=NS(=O)(=O)N(Cc2ccccc2)C(c2ccc(Cl)cc2)=C1 (stereo not given) | 11.9 |  | Activity (Mus musculus [9]): Active; Activity (Mus musculus [10]): inactive
11 | CC1=CC(C(=O)NN2CCCCC2)=NS(=O)(=O)N1C1CCCCC1 |  | inactive | 
12 | CC1=CC(C(=O)NN2CCOCC2)=NS(=O)(=O)N1Cc1ccccc1 |  | inactive | 
13 | CC1=CC(C(=O)NN2CCCCC2)=NS(=O)(=O)N1Cc1ccccc1 |  | inactive | 
14 | Cc1c(C(=O)NN2CCCCC2)nn(-c2ccc(Cl)cc2Cl)c1-c1ccc(Cl)cc1 |  |  | Antagonism [11]: Antagonist
15 | O=C(NN1CCCCC1)C1=NS(=O)(=O)N(C2CCCCC2)C(c2ccc(Br)cc2)=C1 | 38.4 |  | 
16 | O=C(NN1CCCCC1)C1=NS(=O)(=O)N(Cc2ccc(Cl)cc2Cl)C(c2ccc(Cl)cc2)=C1 |  | inactive | 
17 | O=C(NN1CCOCC1)C1=NS(=O)(=O)N(Cc2ccccc2)C(c2ccc(Br)cc2)=C1 |  | inactive | 
18 | CC1=CC(C(=O)NC2CCCCC2)=NS(=O)(=O)N1c1ccccc1 |  | inactive | 
19 | O=C(NN1CCCCC1)C1=NS(=O)(=O)N(Cc2ccccc2)C(c2ccc(Br)cc2)=C1 |  | inactive | 
20 | O=C(NN1CCCCC1)C1=NS(=O)(=O)N(Cc2ccccc2)C(c2ccc(Cl)cc2)=C1 | 13.5 |  | Kb (Cannabinoid receptor 1 [7]): 0.12 µM; Antagonism [11]: Antagonist
21 | Cc1cc(C2=CC(C(=O)NC3CCCCC3)=NS(=O)(=O)N2Cc2ccc(Cl)cc2Cl)ccc1Cl | 36.9 |  | 
